In PubChem BioAssay (NCI):
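Step 1: Grow cells in 96-well plates. Step 2: Expose to compound for 48 hours at 5 concentrations. Step 3: Interpolate endpoints linearly; if unreached, use highest concentration. The concentration for full growth arrest is given as TGI.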

Assays:
Experiment in all cases: NCI anticancer screen, dose series, 48 h
[1] = tested on: NCI-H522 lung
[2] = tested on: HT29 colon
[3] = tested on: EKVX NSCLC
[4] = tested on: SR leukemia
[5] = tested on: OVCAR-4 ovarian
[6] = tested on: OVCAR-8 ovarian
[7] = tested on: OVCAR-5 ovarian

c1ccc2sc(C3(N4CCCCC4)CCCCCC3)cc2c1
TGI [1]: 32.8 µM
TGI [2]: 31.7 µM
TGI [3]: 47.2 µM
TGI [4]: 36.7 µM
TGI [5]: 76 µM
TGI [6]: 72.5 µM
TGI [7]: 36.7 µM

O=c1cc(CC(O)(C(F)(F)Cl)C(F)(F)Cl)[nH]n1-c1ccccc1
TGI [2]: > 100 µM
TGI [3]: > 100 µM
TGI [4]: > 100 µM
TGI [5]: > 100 µM
TGI [6]: > 100 µM
TGI [7]: > 100 µM

CN1CCN(C(=S)N(C(=O)c2ccco2)c2ccccc2)CC1
TGI [1]: > 100 µM
TGI [2]: > 100 µM
TGI [4]: > 100 µM
TGI [5]: > 100 µM
TGI [6]: > 100 µM
TGI [7]: > 100 µM

O=[N+]([O-])c1cccc2nc3ccccc3c(NCCCN3CCOCC3)c12
TGI [1]: 0.0936 µM
TGI [2]: 0.0349 µM
TGI [3]: 0.0559 µM
TGI [5]: 0.0494 µM
TGI [6]: 0.141 µM
TGI [7]: 0.0841 µM

O=C1c2ccccc2C(=O)N1CCCCCCNOCCCN1C(=O)c2ccccc2C1=O
TGI [1]: 79.3 µM
TGI [2]: > 100 µM
TGI [3]: > 100 µM
TGI [4]: > 100 µM
TGI [5]: 93.3 µM
TGI [6]: > 100 µM
TGI [7]: > 100 µM

Cc1c(C(=O)O)c2cc3ccccc3cc2c(=O)n1C
TGI [1]: > 10 µM
TGI [2]: > 10 µM
TGI [3]: > 10 µM
TGI [4]: > 10 µM
TGI [5]: > 10 µM
TGI [6]: > 10 µM
TGI [7]: > 10 µM

CN(C)CCNC(=O)c1cccc2nc3cccc(F)c3nc12
TGI [1]: 2.74 µM
TGI [2]: 8.34 µM
TGI [3]: 6.16 µM
TGI [5]: 4.83 µM
TGI [6]: 3.68 µM
TGI [7]: 7.06 µM

CCCCCC(=O)OCC1(CO)C/C(=C\CC(C(C)C)C(C)C)C(=O)O1 (stereo not given)
TGI [1]: 81.3 µM
TGI [2]: > 100 µM
TGI [3]: > 100 µM
TGI [4]: > 100 µM
TGI [5]: > 100 µM
TGI [6]: 76.2 µM
TGI [7]: > 100 µM

COC(=O)C(Cc1ccccc1I)C1=CCC2(CC1)OCCO2 (stereo not given)
TGI [1]: 53.7 µM
TGI [2]: > 100 µM
TGI [3]: > 100 µM
TGI [4]: 52 µM
TGI [5]: > 100 µM
TGI [6]: > 100 µM
TGI [7]: 54.5 µM

CN(C)CC(CO)(CN(C)C)CN(C)C
TGI [1]: > 100 µM
TGI [2]: > 100 µM
TGI [3]: > 100 µM
TGI [4]: > 100 µM
TGI [5]: > 100 µM
TGI [6]: > 100 µM
TGI [7]: > 100 µM

Cc1ccc(-n2c(Cn3nnc(-c4cccnc4)n3)nn(C3OC(COC(=O)c4ccccc4)C(OC(=O)c4ccccc4)C3OC(=O)c3ccccc3)c2=S)cc1 (stereo not given)
TGI [1]: > 100 µM
TGI [2]: > 100 µM
TGI [3]: > 100 µM
TGI [5]: > 100 µM
TGI [6]: > 100 µM
TGI [7]: > 100 µM

CC(C)CC(=O)NC(NC(C)C)(C(F)(F)F)C(F)(F)F
TGI [1]: > 100 µM
TGI [2]: > 100 µM
TGI [3]: > 100 µM
TGI [4]: > 100 µM
TGI [5]: > 100 µM
TGI [6]: > 100 µM

Oc1c(-c2ccccc2)sc2ccccc12
TGI [1]: > 100 µM
TGI [2]: 81.6 µM
TGI [3]: 86.6 µM
TGI [4]: 34.9 µM
TGI [5]: > 100 µM
TGI [6]: > 100 µM
TGI [7]: 90.3 µM

COc1ccc(N2C(=O)/C(=C\c3cccc(Oc4ccccc4)c3)S(=O)(=O)C2c2ccccc2)cc1 (stereo not given)
TGI [1]: 60.8 µM
TGI [3]: 88 µM
TGI [4]: 59.3 µM
TGI [5]: > 100 µM
TGI [7]: > 100 µM
